# Data: patent US20100234351A1, “FUSED NITROGEN-COMPRISING HETEROCYCLIC COMPOUND” (TAKEDA PHARMACEUTICAL COMPANY LIMITED, priority 2006, published 2010)
# Counter-ions that a name gives are not always drawn.
# What was measured:
# [1] = target: T1, EGFR intracellular domain (Homo sapiens, UniProt P00533); experiment: Assay of EGFR kinase inhibitory activity; assay type: biochemical; conditions: compound 1.0 μM, poly-Glu:Tyr (4:1) substrate, [γ-32P]ATP, read-out: Inhibitory rate (%) at 1.0 μM
# T1 construct: made in house; host or cells: SF-21 insect cells infected with recombinant baculovirus BAC-EGFR
# T1 sequence (P00533 669-1210): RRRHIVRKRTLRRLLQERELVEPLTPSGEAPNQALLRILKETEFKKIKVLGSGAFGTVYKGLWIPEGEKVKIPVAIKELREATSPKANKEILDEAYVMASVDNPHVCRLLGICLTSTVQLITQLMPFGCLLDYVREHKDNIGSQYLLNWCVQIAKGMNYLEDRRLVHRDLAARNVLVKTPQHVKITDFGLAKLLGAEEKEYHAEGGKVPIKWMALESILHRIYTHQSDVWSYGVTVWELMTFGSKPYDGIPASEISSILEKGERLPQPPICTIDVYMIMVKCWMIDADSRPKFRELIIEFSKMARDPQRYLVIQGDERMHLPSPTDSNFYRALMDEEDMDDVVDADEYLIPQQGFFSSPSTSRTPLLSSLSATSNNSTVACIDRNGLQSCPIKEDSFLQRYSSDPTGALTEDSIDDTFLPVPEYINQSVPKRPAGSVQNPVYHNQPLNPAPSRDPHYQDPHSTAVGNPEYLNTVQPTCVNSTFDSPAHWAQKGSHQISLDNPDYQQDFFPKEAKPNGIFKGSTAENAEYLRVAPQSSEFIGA
# Method: Human EGFR gene was cloned by RT-PCR using total RNA prepared from A431 cell as a template. The primer used for RT-PCR was prepared from base sequence (Genbank Accession No. X00588) information of EGFR gene, adding DYKDDDD base sequence encoding the peptide and a restriction enzyme recognition sequence to a base sequence (2191-3819 of Genbank Accession No. X00588 as a base, and corresponding to 669-1210 amino acid of Genbank Accession No. NP_005219 as a protein) encoding the EGFR intracellular domain, so that a DYKDDDD peptide tag would be attached to the N-terminus of the protein. The base sequence of the primer is shown in below.
# The RT reaction was performed using Superscript First-Strand Synthesis System for RT-PCR (Invitrogen), and PCR reaction was performed using KOD-plus kit (TOYOBO). The obtained PCR product was electrophoresed on agarose gel (1%), and the DNA fragment amplified by PCR was recovered from the gel, and then digested with restriction enzymes Sal I and Sph I. The DNA treated with the restriction enzymes was electrophoresed on agarose gel (1%), and the obtained DNA fragment was recovered and ligated to plasmid pFASTBAC1 (Invitrogen) digested with restriction enzymes Sal I and Sph I to give expression plasmid pFB-EGFR. The base sequence of the inserted fragment was confirmed and found to be identical with the base sequence of the EGFR intracellular domain (2191-3819 of Genbank Accession X00588). Furthermore, virus stock BAG-EGFR of recombinant Baculovirus was prepared using BAC-TO-BAC Baculovirus Expression System (Invitrogen).
# SF-21 cells were sown at 1×10^6 cells/mL to 1 L of Sf-900II SFM medium (Invitrogen) containing 10% fetal calf serum (trace), 50 mg/L Gentamicin (Invitrogen) and 0.1% Pluronic F-68 (Invitrogen), and cultured with shaking in a 2 L Erlenmeyer flask at 27° C., 100 rpm. After culture for 24 hr, recombinant Baculovirus BAC-EGFR (13.4 mL) was added thereto, and the cells were further cultured for 3 days. The culture medium was centrifuged at 2,000 rpm for 5 min to give virus infected cells. The infected cells were washed with phosphate buffered saline (Invitrogen), centrifuged under the same conditions, and preserved at −80° C. The cryopreserved cells were thawed in ice and suspended in 30 mL of buffer A containing Complete Protease Inhibitor (Boehringer) (50 mM tris buffer (pH 7.4) containing 20% Glycerol, 0.15 M NaCl). The cells were disrupted 3 times at 20,000 rpm for 30 sec using a polytron homogenizer (Kinematica). The disrupt was clarified by centrifugation at 40,000 rpm for 30 min and filtered through a 0.45 μm filter. The filtrate was passed through a column packed with 4 mL of Anti-FLAG M2 Affinity Gel (Sigma Aldrich Co.) at a flow rate of about 0.5 mL/min. The column was washed with buffer A, and eluted with buffer A containing 100 μg/mL of FLAG peptide. The eluate was concentrated with Vivaspin 20 having a molecular weight cut off of 30 K (Vivascience). The concentrate was purified by gel filtration using Hi-Load 16/60 Superdex 200 pg (GE Healthcare Bioscience) equilibrated with buffer A. The fractions containing EGFR intracellular domain were collected and cryopreserved at −80° C.
# EGFR kinase reaction was carried out using a 96-well plate. As a buffer for Kinase reaction, a buffer of a composition of 50 mM Tris-HCl (pH 7.5), 5 mM MnCl2, 2 mM dithiothreitol and 0.01% Tween-20 was used. […]
# [2] = target: T2, HER2 intracellular domain (Homo sapiens, UniProt P04626); experiment: Measurement of HER2 kinase inhibitory activity; assay type: biochemical; conditions: compound 1.0 μM, poly-Glu:Tyr (4:1) substrate, [γ-32P]ATP, read-out: Inhibitory rate (%) at 1.0 μM
# T2 construct: made in house; host or cells: SF-21 insect cells infected with recombinant baculovirus BAC-HER2
# T2 sequence (P04626 676-1255): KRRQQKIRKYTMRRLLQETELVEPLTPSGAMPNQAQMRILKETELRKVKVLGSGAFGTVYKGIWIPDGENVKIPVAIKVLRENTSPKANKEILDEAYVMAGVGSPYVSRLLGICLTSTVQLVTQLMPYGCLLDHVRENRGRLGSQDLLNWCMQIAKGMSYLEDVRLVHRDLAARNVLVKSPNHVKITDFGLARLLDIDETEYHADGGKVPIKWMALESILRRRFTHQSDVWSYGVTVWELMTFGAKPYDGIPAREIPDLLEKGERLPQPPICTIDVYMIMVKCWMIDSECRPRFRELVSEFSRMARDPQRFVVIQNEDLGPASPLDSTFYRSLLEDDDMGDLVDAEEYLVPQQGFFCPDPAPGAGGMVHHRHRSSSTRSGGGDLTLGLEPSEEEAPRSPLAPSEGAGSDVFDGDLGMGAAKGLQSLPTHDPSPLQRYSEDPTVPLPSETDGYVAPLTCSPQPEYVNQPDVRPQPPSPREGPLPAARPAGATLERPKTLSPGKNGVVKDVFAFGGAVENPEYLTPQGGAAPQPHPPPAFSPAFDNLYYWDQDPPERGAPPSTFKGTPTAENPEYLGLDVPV
# Method: Human HER2 gene was cloned by RT-PCR using total RNA prepared from MCF7 cells as a template. The primer used for RT-PCR was prepared from base sequence (Genbank Accession No. M11730) information of HER2 gene, adding base sequence encoding DYKDDDD peptide and a restriction enzyme recognition sequence to a nucleotide sequence (2176-3918 of Genbank Accession No. M11730 as a base, and corresponding to 676-1255 amino acid of Genbank Accession No. NP_004439 as a protein) encoding the HER2 intracellular domain region, so that a DYKDDDD peptide tag would be attached to the N-terminus of the protein. The base sequence of the primer is shown in below.
# The RT reaction was performed using Superscript First-Strand Synthesis System for RT-PCR (Invitrogen) and the PCR reaction was performed using KOD-plus kit (TOYOBO). The obtained PCR product was electrophoresed on agarose gel (1%), and the DNA fragment amplified by PCR was recovered from the gel, and then digested with restriction enzymes Sal I and Sph I. The DNA treated with the restriction enzymes was electrophoresed on agarose gel (1%), and the obtained DNA fragment was recovered and ligated to plasmid pFASTBAC1 (Invitrogen) digested with restriction enzymes Sal I and Sph I to give expression plasmid pFB-HER2. The base sequence of the inserted fragment was confirmed and found to be identical with the base sequence of HER2 intracellular domain (2176-3918 of Genbank Accession M11730). Furthermore, using BAC-TO-BAC Baculovirus Expression System (Invitrogen), recombinant baculovirus BAC-HER2 was prepared.
# SF-21 cells were sown at 1×10^6 cells/mL to 1 L of Sf-900II SFM medium (Invitrogen) containing 10% fetal calf serum (trace), 50 mg/L gentamicin (Invitrogen) and 0.1% Pluronic F-68 (Invitrogen), and cultured with shaking in 2 L volume Erlenmeyer flask at 27° C., 100 rpm. After culturing for 24 hr, recombinant baculovirus BAC-HER2 (13.4 mL) was added thereto, and the cells were further cultured for 3 days. The culture medium was centrifuged at 2,000 rpm for 5 min to give virus-infected cells. The infected cells were washed with phosphate buffered saline (Invitrogen), centrifuged under the same conditions, and preserved at −80° C. The cryopreserved cells were thawed in ice and suspended in buffer A (50 mM Tris buffer (30 mL, pH 7.4) containing 20% glycerol, 0.15 M NaCl) supplemented with Complete Protease Inhibitor (Boehringer). The cells were ruptured 3 times with a Polytron homogenizer (Kinematica) at 20,000 rpm for 30 sec. The disrupt was clarified by centrifugation at 40,000 rpm for 30 min and filtered with a 0.45 μm filter. The filtrate was passed through a column packed with Anti-FLAG M2 Affinity Gel (4 mL, Sigma Aldrich CO.) at a flow rate of about 0.5 mL/min. The column was washed with buffer A, and eluted with buffer A containing 100 μg/mL of FLAG peptide. The eluate was concentrated with Vivaspin 20 (Vivascience) having a molecular weight cut off of 30K. The concentrate was purified by gel filtration using Hi-Load 16/60 Superdex 200pg (GE Healthcare Bioscience) equilibrated with buffer A. The fractions containing HER2 intracellular domain were collected and cryopreserved at −80° C.
# HER2 kinase reaction was carried out using 96-well plate. As a buffer for Kinase reaction, a buffer of a composition of 50 mM Tris-HCl (pH 7.5), 5 mM MnCl2, 2 mM dithiothreitol and 0.01% Tween-20 was used. The compound of the present invention was dissolved in dimethyl sulfoxide (DMSO), and diluted with a buffer for kinase reaction so that the DMSO concentration would become 0.1% during kinase reaction. The compound solution (10 μL) was mixed with a buffer for kinase reaction (20 μL) containing the HER2 intracellular domain (0.625 μg/mL) obtained in Experimental Example 1B and a polypeptide substrate poly-Glu:Tyr (4:1) (12.5 μg/mL, Sigma Ltd.) and the mixture was stood for 5 min at room temperature. […]
# [3] = tested on: human breast cancer cell BT-474; experiment: Inhibitory action on breast cancer cell BT-474 proliferation in vitro; assay type: cell-based; conditions: 120 h, BT-474 cells, cultured 5 days with compound, SRB staining of cell protein
# Method: A suspension of human breast cancer cell BT-474 (100 μl (6,000 cells)) were plated to 96-well microplate and cultured in an incubator (37° C., 5% carbon dioxide). On the following day, 100 μl of a solution of each test compound previously diluted serially in 2-fold, was added to give indicated dose, and the cells were cultured for 5 days. The culture medium containing the test compound was removed, and the cells were washed, and fixed with 50% trichloroacetic acid, and 0.4% w/v) SRB solution (dissolved in 1% acetic acid) was added to stain the cell protein (Skehan et al., Journal of the National Cancer Institute, Vol. 82, pp. 1107-1112, 1990). After washing with a 1% acetic acid solution, 100 μl of Tris solution (10 mM) was added to extract the pigment and the absorbance was measured at a wavelength of 550 nm to quantify the amount of cells as protein content. Taking as 100% the protein content for the control group, which received no test compound solution, the ratio of the residual protein content for each treatment group was determined, and the compound concentration required to achieve 50% suppression of the residual cell content relative to the control (IC50 value) was calculated.
Compound,inhibition at 1 µM [1] [%],inhibition at 1 µM [2] [%],IC50 [3] [nM]
"O=C(NCCCn1ccnc1)C1=Cc2c(ncnc2Nc2ccc(Oc3cccc(C(F)(F)F)c3)c(Cl)c2)NCC1 [Example 115, 4-({3-chloro-4-[3-(trifluoromethyl)phenoxy]phenyl}amino)-N-[3-(1H-imidazol-1-yl)propyl]-8,9-dihydro-7H-pyrimido[4,5-b]azepine-6-carboxamide]",95,,
"O=C(NCCS(=O)(=O)CCO)C1=Cc2c(ncnc2Nc2ccc(Oc3cccc(C(F)(F)F)c3)c(Cl)c2)NCC1 [Example 147, 4-({3-chloro-4-[3-(trifluoromethyl)phenoxy]phenyl}amino)-N-{2-[(2-hydroxyethyl)sulfonyl]ethyl}-8,9-dihydro-7H-pyrimido[4,5-b]azepine-6-carboxamide]",95,,
"COCCOCCNC(=O)C1=Cc2c(ncnc2Nc2ccc(Oc3cccc(C(F)(F)F)c3)c(Cl)c2)NCC1 [Example 122, 4-({3-chloro-4-[3-(trifluoromethyl)phenoxy]phenyl}amino)-N-[2-(2-methoxyethoxy)ethyl]-8,9-dihydro-7H-pyrimido[4,5-b]azepine-6-carboxamide]",,96,< 100
"O=C(NCC(O)CO)C1=Cc2c(ncnc2Nc2ccc(Oc3cccc(C(F)(F)F)c3)c(Cl)c2)NCC1 (stereo not drawn) [Example 136, 4-({3-chloro-4-[3-(trifluoromethyl)phenoxy]phenyl}amino)-N-(2,3-dihydroxypropyl)-8,9-dihydro-7H-pyrimido[4,5-b]azepine-6-carboxamide]",97,,
"O=C(NCCOCCO)C1=Cc2c(ncnc2Nc2ccc(Oc3cccc(C(F)(F)F)c3)c(Cl)c2)NCC1 [Example 119, 4-({3-chloro-4-[3-(trifluoromethyl)phenoxy]phenyl}amino)-N-[2-(2-hydroxyethoxy)ethyl]-8,9-dihydro-7H-pyrimido[4,5-b]azepine-6-carboxamide]",96,,< 100
"O=C(NCCOCCO)C1=Cc2c(ncnc2Nc2ccc(Oc3cccc(Cl)c3)c(Cl)c2)NCC1 [Example 143, 4-{[3-chloro-4-(3-chlorophenoxy)phenyl]amino}-N-[2-(2-hydroxyethoxy)ethyl]-8,9-dihydro-7H-pyrimido[4,5-b]azepine-6-carboxamide hydrochloride]",97,,< 100
